Measured values: patent US20260092061A1, “COMPOUNDS FOR TARGETED PROTEIN DEGRADATION” (Amphista Therapeutics Limited, priority 2022, published 2026)

What was measured:
[1] = molecular target: T1, BRD9 (Homo sapiens, UniProt Q9H8M2); assay: BRD9 degradation, HiBiT-BRD9 KI HEK293 (LgBiT) cells, NanoGlo Lytic Endpoint assay (Assay Protocol 1); type: cell-based; conditions: Assay protocol 1, BRD9 degradation; for DC50: read-out: DC50; for Dmax: HEK293, read-out: Dmax
T1 sequence (Q9H8M2 1-597): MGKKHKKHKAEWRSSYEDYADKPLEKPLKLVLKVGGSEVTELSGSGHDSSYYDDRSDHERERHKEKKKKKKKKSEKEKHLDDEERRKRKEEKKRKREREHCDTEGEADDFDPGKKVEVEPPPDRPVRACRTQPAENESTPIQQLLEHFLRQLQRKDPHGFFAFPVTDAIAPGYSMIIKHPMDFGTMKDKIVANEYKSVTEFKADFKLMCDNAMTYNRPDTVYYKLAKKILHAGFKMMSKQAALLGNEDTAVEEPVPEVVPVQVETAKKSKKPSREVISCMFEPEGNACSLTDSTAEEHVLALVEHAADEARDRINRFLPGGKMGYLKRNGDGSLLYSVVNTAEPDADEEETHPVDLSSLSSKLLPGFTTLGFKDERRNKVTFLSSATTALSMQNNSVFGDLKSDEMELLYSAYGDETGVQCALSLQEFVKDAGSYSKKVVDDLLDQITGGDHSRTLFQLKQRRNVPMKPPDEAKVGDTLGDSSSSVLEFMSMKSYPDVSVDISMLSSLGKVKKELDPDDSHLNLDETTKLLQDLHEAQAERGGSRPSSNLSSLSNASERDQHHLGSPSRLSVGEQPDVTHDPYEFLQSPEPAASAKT
In short: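 HiBiT-tagged BRD9 knock-in HEK293 (LgBiT) cells exposed to compounds for 6 h at 37 °C, 5% CO2. Residual BRD9 measured by HiBiT lytic luminescence. % BRD9 remaining normalised to DMSO-treated cells (high) and no-cell wells (low).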

[2] = molecular target: T1, BRD9; assay: Degradation of BRD9 (IF), immunofluorescence in MV4-11 cells, 24 hours (Assay Protocol 2); type: cell-based; set-up: A suspension of MV4-11 cells (ATCC CRL-9591) was prepared; host or cells: MV4-11; conditions: BRD9 degradation; for DC50: Assay protocol 2, read-out: DC50; for Dmax: MV4-11, Assay protocol 2, read-out: Dmax
In short: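 MV4-11 cells treated with compound 24 h at 37° C., then fixed, permeabilised and immunostained for BRD9 (anti-BRD9 E4Q3F, Alexa 647 secondary, Hoechst counterstain). High-content imaging quantified nuclear BRD9 signal; % BRD9 remaining normalised to DMSO and 100 nM CFT-8634 controls.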

Row | Compound | DC50 [1] | Dmax [1] | DC50 [2] | Dmax [2]
1 | COc1cc(-c2cn(C)c(=O)c(C)c2C)cc(OC)c1CN1CCN(C(=O)c2ccc(C3CCCN3C(=O)/C(C#N)=C/C(C)(C)C)cc2)CC1 (mixture of isomers) [Compound B55, (E/Z)-2-(2-(4-(4-(2,6-dimethoxy-4-(1,4,5-trimethyl-6-oxo-1,6-dihydropyridin-3-yl)benzyl)piperazine-1-carbonyl)phenyl)pyrrolidine-1-carbonyl)-4,4-dimethylpent-2-enenitrile] | 10 to 25 nM | > 75% | 25 to 1000 nM | > 75%
2 | COc1cc(-c2cn(C)c(=O)c(C)c2C)cc(OC)c1CN1CC2(C1)CN(c1cccc(C3CCCN3C(=O)/C(C#N)=C/C(C)(C)C)c1)C2 (mixture of isomers) [Compound B58, (E/Z)-2-(2-(3-(6-(2,6-dimethoxy-4-(1,4,5-trimethyl-6-oxo-1,6-dihydropyridin-3-yl)benzyl)-2,6-diazaspiro[3.3]heptan-2-yl)phenyl)pyrrolidine-1-carbonyl)-4,4-dimethylpent-2-enenitrile] | < 1.25 nM | 40 to 70% | < 1.25 nM | 40 to 70%
3 | COc1cc(-c2cn(C)c(=O)c3ccsc23)cc(OC)c1CN1CCN(Cc2cccc3c2CCN(C(=O)/C(C#N)=C/C(C)(C)C)C3C)CC1 (mixture of isomers) [Compound B59, (E/Z)-2-(5-((4-(2,6-dimethoxy-4-(5-methyl-4-oxo-4,5-dihydrothieno[3,2-c]pyridin-7-yl)benzyl)piperazin-1-yl)methyl)-1-methyl-1,2,3,4-tetrahydroisoquinoline-2-carbonyl)-4,4-dimethypent-2-enenitrile] |  | 40 to 70% |  | 40 to 70%
4 | COc1cc(-c2cn(C)c(=O)c(C)c2C)cc(OC)c1CN(C)Cc1cccc(C2CCCN2C(=O)/C(C#N)=C/C(C)(C)C)c1 (mixture of isomers) [Compound B78, (E/Z)-2-(2-(3-(((2,6-dimethoxy-4-(1,4,5-trimethyl-6-oxo-1,6-dihydropyridin-3-ylbenzyl)methyl)amino)methyl)phenyl)pyrrolidine-1-carbonyl)-4,4-dimethylpent-2-enenitrile] | 1.25 to 10 nM | > 75% | 10 to 25 nM | > 75%
5 | COc1cc(-c2cn(C)c(=O)c(C)c2C)cc(OC)c1CN1CCN(Cc2cccc3c2CCN(C(=O)/C(C#N)=C/C2(C)CCOCC2)C3C)C2(CC2)C1 (mixture of isomers) [Compound B123, (E/Z)-2-(5-((7-(2,6-dimethoxy-4-(1,4,5-trimethyl-6-oxo-1,6-dihydropyridin-3-yl)benzyl)-4,7-diazaspiro[2.5]octan-4-yl)methyl)-1-methyl-1,2,3,4-tetrahydroisoquinoline-2-carbonyl)-3-(4-methyltetrahydro-2H-pyran-4-yl)acrylonitrile] | 1.25 to 10 nM | > 75% | < 1.25 nM | > 75%
6 | COCC1(/C=C(\C#N)C(=O)N2CCc3c(CN4CCN(Cc5c(OC)cc(-c6cn(C)c(=O)c(C)c6C)cc5OC)CC45CC5)cccc3C2C)CC1 (mixture of isomers) [Compound B124, (E/Z)-2-(5-((7-(2,6-dimethoxy-4-(1,4,5-trimethyl-6-oxo-1,6-dihydropyridin-3-yl)benzyl)-4,7-diazaspiro[2.5]octan-4-yl)methyl)-1-methyl-1,2,3,4-tetrahydroisoquinoline-2-carbonyl)-3-(1-(methoxymethyl)cyclopropyl)acrylonitrile] | < 1.25 nM | > 75% | < 1.25 nM | > 75%

Second part, the compound after the results:

Row | DC50 [1] | Dmax [1] | DC50 [2] | Dmax [2] | Compound
7 | < 1.25 nM | 70 to 75% | 10 to 25 nM | > 75% | COc1cc(-c2cn(C)c(=O)c(C)c2C)cc(OC)c1CN1CCN(Cc2cccc3c2CCN(C(=O)/C(C#N)=C/c2cc(C(F)(F)F)ccn2)C3C)CC1 (mixture of isomers) [Compound B50, (E/Z)-2-(5-((4-(2,6-dimethoxy-4-(1,4,5-trimethyl-6-oxo-1,6-dihydropyridin-3-yl)benzyl)piperazin-1-yl)methyl)-1-methyl-1,2,3,4-tetrahydroisoquinoline-2-carbonyl)-3-(4-(trifluoromethyl)pyridin-2-yl)acrylonitrile]
8 | 1.25 to 10 nM | 40 to 70% |  | 25 to 40% | COc1cccnc1/C=C(\C#N)C(=O)N1CCc2c(CN3CCN(Cc4c(OC)cc(-c5cn(C)c(=O)c(C)c5C)cc4OC)CC3)cccc2C1C (mixture of isomers) [Compound B51, (E/Z)-2-(5-((4-(2,6-dimethoxy-4-(1,4,5-trimethyl-6-oxo-1,6-dihydropyridin-3-yl)benzyl)piperazin-1-yl)methyl)-1-methyl-1,2,3,4-tetrahydroisoquinoline-2-carbonyl)-3-(3-methoxypyridin-2-yl)acrylonitrile]
9 | < 1.25 nM | 70 to 75% | 25 to 1000 nM | 40 to 70% | COc1ccnc(/C=C(\C#N)C(=O)N2CCc3c(CN4CCN(Cc5c(OC)cc(-c6cn(C)c(=O)c(C)c6C)cc5OC)CC4)cccc3C2C)c1 (mixture of isomers) [Compound B52, (E/Z)-2-(5-((4-(2,6-dimethoxy-4-(1,4,5-trimethyl-6-oxo-1,6-dihydropyridin-3-yl)benzyl)piperazin-1-yl)methyl)-1-methyl-1,2,3,4-tetrahydroisoquinoline-2-carbonyl)-3-(4-methoxypyridin-2-yl)acrylonitrile]
10 | 1.25 to 10 nM | 40 to 70% |  | 40 to 70% | COc1ccc(/C=C(\C#N)C(=O)N2CCc3c(CN4CCN(Cc5c(OC)cc(-c6cn(C)c(=O)c(C)c6C)cc5OC)CC4)cccc3C2C)nc1 (mixture of isomers) [Compound B53, (E/Z)-2-(5-((4-(2,6-dimethoxy-4-(1,4,5-trimethyl-6-oxo-1,6-dihydropyridin-3-yl)benzyl)piperazin-1-yl)methyl)-1-methyl-1,2,3,4-tetrahydroisoquinoline-2-carbonyl)-3-(5-methoxypyridin-2-yl)acrylonitrile]
11 | < 1.25 nM | > 75% | < 1.25 nM | 70 to 75% | COc1cc(-c2cn(C)c(=O)c(C)c2C)cc(OC)c1CN1CCC(Oc2cccc(C3CCCN3C(=O)/C(C#N)=C/C(C)(C)C)c2)C1 (mixture of isomers) [Compound B54, (E/Z)-2-(2-(3-(((S)-1-(2,6-dimethoxy-4-(1,4,5-trimethyl-6-oxo-1,6-dihydropyridin-3-yl)benzyl)pyrrolidin-3-yl)oxy)phenyl)pyrrolidine-1-carbonyl)-4,4-dimethylpent-2-enenitrile]
12 | < 1.25 nM | 40 to 70% | < 1.25 nM | 40 to 70% | COc1cc(-c2cn(C)c(=O)c(C)c2C)cc(OC)c1CN1CC(Oc2ccc3c(c2)CCN(C(=O)/C(C#N)=C/c2cccc(Br)n2)C3C)C1 (mixture of isomers) [Compound B57, (E/Z)-3-(6-bromopyridin-2-yl)-2-(6-((1-(2,6-dimethoxy-4-(1,4,5-trimethyl-6-oxo-1,6-dihydropyridin-3-yl)benzyl)azetidin-3-yl)oxy)-1-methyl-1,2,3,4-tetrahydroisoquinoline-2-carbonyl)acrylonitrile]
13 | 1.25 to 10 nM | > 75% | 1.25 to 10 nM | 40 to 70% | COc1cc(-c2cn(C)c(=O)c(C)c2C)cc(OC)c1CN1CCN(Cc2cccc3c2CCN(C(=O)/C(C#N)=C/C2CCOC2)C3C)CC1 (mixture of isomers) [Compound B94, (E/Z)-2-(5-((4-(2,6-dimethoxy-4-(1,4,5-trimethyl-6-oxo-1,6-dihydropyridin-3-yl)benzyl)piperazin-1-yl)methyl)-1-methyl-1,2,3,4-tetrahydroisoquinoline-2-carbonyl)-3-(tetrahydrofuran-3-yl)acrylonitrile]
14 | 1.25 to 10 nM | > 75% | < 1.25 nM | > 75% | COc1cc(-c2cn(C)c(=O)c(C)c2C)cc(OC)c1CN1CCN(Cc2cccc3c2CCN(C(=O)/C(C#N)=C/C2CC(F)(F)C2)C3C)C2(CC2)C1 (mixture of isomers) [Compound B116]
15 | 1.25 to 10 nM | > 75% | 10 to 25 nM | > 75% | COc1cc(-c2cn(C)c(=O)c(C)c2C)cc(OC)c1CN1C[C@H](C)N(Cc2cccc3c2CCN(C(=O)/C(C#N)=C/C(C)(C)C)C3C)C[C@H]1C (mixture of isomers) [Compound B122, (E/Z)-2-(5-(((2S,5R)-4-(2,6-dimethoxy-4-(1,4,5-trimethyl-6-oxo-1,6-dihydropyridin-3-yl)benzyl)-2,5-dimethylpiperazin-1-yl)methyl)-1-methyl-1,2,3,4-tetrahydroisoquinoline-2-carbonyl)-4,4-dimethylpent-2-enenitrile]
